We go through 17 molecules from patent publication US20220274967A1, “BCAT MODULATION” (Icagen, LLC, priority 2019, published 2022).

The target in assay [1] is T1, BCAT2 (Homo sapiens, UniProt O15382).
T1 sequence (O15382 28-392): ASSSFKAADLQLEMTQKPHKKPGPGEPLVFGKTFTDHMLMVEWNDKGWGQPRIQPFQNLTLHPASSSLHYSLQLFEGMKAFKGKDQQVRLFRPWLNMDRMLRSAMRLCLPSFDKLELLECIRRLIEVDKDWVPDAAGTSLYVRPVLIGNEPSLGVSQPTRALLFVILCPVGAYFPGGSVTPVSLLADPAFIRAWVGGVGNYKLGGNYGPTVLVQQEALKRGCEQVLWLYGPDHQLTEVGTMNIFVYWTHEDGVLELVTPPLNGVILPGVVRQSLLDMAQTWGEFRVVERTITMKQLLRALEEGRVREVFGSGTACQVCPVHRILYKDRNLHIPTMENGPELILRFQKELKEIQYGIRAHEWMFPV
Put plainly: BCAT2 enzyme inhibition (human). The class given is biochemical. In a few lines:
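Cell-free coupled fluorescent assay: human BCATm converts branched-chain amino acids and α-ketoglutarate to L-glutamate, which L-glutamate oxidase and HRP link to resorufin formation from Amplex Red; activity taken as reduced glutamate signal.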

For assay [2], the target named is T2, BCAT1 (Homo sapiens, UniProt P54687).
T2 sequence (P54687 1-386): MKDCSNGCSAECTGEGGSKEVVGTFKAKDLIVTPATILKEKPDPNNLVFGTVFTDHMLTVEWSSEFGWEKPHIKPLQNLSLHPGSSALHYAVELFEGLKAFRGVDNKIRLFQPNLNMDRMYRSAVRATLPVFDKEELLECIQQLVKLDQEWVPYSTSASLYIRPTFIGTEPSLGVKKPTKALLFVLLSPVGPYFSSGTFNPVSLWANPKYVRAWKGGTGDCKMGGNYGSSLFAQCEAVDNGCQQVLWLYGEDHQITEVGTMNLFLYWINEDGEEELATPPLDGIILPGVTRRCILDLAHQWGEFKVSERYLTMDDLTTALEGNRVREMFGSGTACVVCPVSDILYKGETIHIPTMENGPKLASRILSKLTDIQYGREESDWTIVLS
Put plainly: BCAT1 enzyme inhibition (human), Glutamate Glo luminescence. The class given is biochemical. As for the experimental part:
The BCAT1 inhibitory activity of selected compounds of the present disclosure were also evaluated. Compounds were prepared as up to 10 mM stock solutions generally using DMSO as the vehicle. 10-point dose response curves were generated using the Echo-550 (Labcyte) acoustic dispenser. Compound source plates ([…]) were made by serially diluting compound stocks to create 1 mM, 0.1 mM, and 0.01 mM solutions in DMSO into Echo certified LDV plates. The Echo then serially spotted 100% DMSO stock solutions into source dose response plates to generate a semi-log fold dilution scheme. 100% DMSO was added to the spotted dose response plates to bring the final volume to 5 μL, creating a 333× stock plate. 120 nL of the dose response stock plate was then spotted into the assay plate. 10 μL of assay buffer (50 mM Tris with 0.05% TWEEN-20) was then added to the plates resulting in a 4× working concentration in the assay plate. Final assay test concentration range was 3 μM to 0.0001 μM with a final DMSO concentration of 0.3%.
BCAT1 enzyme stock was first diluted to a 4× working concentration of 0.24 μg/mL in assay buffer (final assay concentration is 0.06 ug/ml). 10 μL of the 4×BCAT1 solution was then added to the previously prepared assay plate containing test compound or controls, and incubated at room temperature, protected from light, for either 10 or 60 minutes. After the compound incubation period, 20 μL of assay buffer plus 2× substrate is added to all wells (Final assay concentration of substrates is 300 μM L-leucine and 250 μM alpha-ketoglutaric acid). Enzyme reaction was then incubated for 10 minutes at room temperature. After the 10 minute incubation, the enzymatic reaction was halted with the addition of 5 μL of 0.6N HCl and incubated for 1 min. 5 μL of 1M Tris (pH 8.0) was then added to neutralize pH. 12.5 μL of the quenched assay volume was then transferred to a white, 384 well plate and 12.5 μL of Glutamate detection reagent was added (detection reagent prepared per Promega Glutamate Glo kit instructions). Plates were then incubated for 30 minutes at room temperature, protected from light. After glutamate detection incubation period, luminescence was read on BMG Novostar and relative light units was measured and exported for analysis.
Compound modulation of BCAT1 enzymatic activity was determined as follows. IC50 values were calculated in ActivityBase, using a 4-parameter fit equation. Data was normalized to maximum inhibition form the reference agent VS558CSA (at 10 μM). Relative light units were exported for analysis and % inhibition values for each well were calculated using the following formula: […]

In assay [3] the test system is GM00371 cells. Put plainly: Viability assay (Cell titer glo) in the 3-HIB assay. The format is cell-based, human. Particulars: Homo sapiens, 24 h, read-out: 3HIB INHIBITION IC50 (μM) MEAN GM00371 cells Viablility Assay. In a few lines: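 GM00371 cells (10,000/well, EMEM/15% FBS) were exposed for 24 h at 37 °C to compounds in 1:3 serial dilution from 30 μM top concentration in EMEM. Reference Compound B at 30 μM served as maximal-toxicity control. Viability read as CellTiter-Glo luminescence.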
(Cellular ATP, detected with luciferase, serves as a proxy for viable cell number.)

A short description of assay [4]: 3-HIB assay in vitro, direct MS assay of conditioned media. The format is cell-based, human. Particulars: Homo sapiens, 24 h, GM00371 cells, read-out: 3HIB INHIBITION IC50 (μM) MEAN GM00371 cells Direct MS Assay. As for the experimental part: Cell Plating: Cells (Coriell Institute GM00371 cells) were plated (96-well clear bottom sterile plate; Greiner 655098) at 10,000 cells/0.1 mL in Eagle's minimum essential medium (EMEM)/15% FBS (Gibco 16000-044) with a Combi dispenser in a cell culture hood and incubated at 37° C. and 5% CO2 overnight.
Compound Dilution: Compound were prepared as 33.3× intermediate dilution in DMSO in 96 well round polystyrene plates. For 30 μM final maximum start with 30 μL of 10 mM in DMSO. 10-12 1:3 serial dilutions were prepared from left to right (20 μL+40 μL DMSO). A 10× secondary dilution was prepare in EMEM by taking 7.5 μL 33.3× and transfer to replicate 96 well round polystyrene plates and then adding 242.5 μL EMEM A 1× final dilution in EMEM was prepared by taking 50 μL 10× dilution and transferring to replicate 96 well polypropylene assay block (Costar 3956) and adding 450 μL EMEM A control was prepared for maximal compound inhibition by taking 20 μL 10 mM Reference Compound A and adding 40 μL DMSO for a concentration of 3.3 mM To 7.5 μL of the 3.3 mM Reference Compound A solution and added 242.5 μL EMEM to make a 100 μM solution. The subsequent Reference Compound A solution was diluted with EMEM to achieve a final concentration of 10 μM. The structure of Reference Compound A is:
A control was prepared for maximal compound toxicity by taking 7.5 μL Reference Compound B and 242.5 μL EMEM to make […]. 50 μL of that 100 μM Reference Compound B solution was combined with 450 μL EMEM to achieve a concentration of 30 μM. The structure of Reference Compound B is
A DMSO Control was prepared by dilution 7.5 μL with 242.5 μL EMEM and taking 50 μL of the subsequent solution and diluting with 450 μL EMEM.
Compound Treatment: Media was aspirated from the cells and 100 μL of D-PBS (ThermoFisher 14190144) was added and then removed. 100 μL of diluted compound was added to the cells in the place and the cells were incubated at 37° C. and 5% CO2 for 24 hours.
Collection of Conditioned Media: For 3HIB MS detection: 20 μL conditioned media was removed from the cells and was transferred to a labeled replicate 96 well polypropylene assay plate (VWR 62408-946). And the plate was heat sealed and stored at −80° C.
3HIB Derivatization (Generalized SOP): The media collected for 3HIB MS detection was derivatized under the following conditions. Buffer: 0.1M 1-Ethyl-3-(3-dimethylaminopropyl)carbodiimide (EDC) dissolved in 0.1 M 2-(N-morpholino)ethanesulfonic acid ([…]) adjusted to pH 5.6. Buffer prep: weighed 10.6 g MES (Sigma #M-5287) per 500 mL HPLC grade H2O. Stored at 4° C.; 0.1M EDC: Weighed 1.971 g EDC (#E-1769) per 100 mL MES. Adjusted pH to 5.6 with ˜40 drops of 1N NaOH and stored at 4° C. Buffer has a short half-life should be used within two weeks.
Derivatization: To 20 μL sample was added 60 μL 5 uM 3HIB-4C13 internal standard followed by 20 μL EDC in MES and 100 μL MES. The plate was sealed and incubate at 50° C. for […] then centrifuged at 4000 rpm at 6° C. for 10 minutes. LC-MS analysis was then conducted and the data was processed using standard methods.

Turning to `CNC(=O)c1cc2nc(-c3ccccn3)n(C3COCC(NC(=O)c4ccc(Br)s4)C3)c2cc1F` (centres unmarked) [Compound 234, 1-(5-(5-bromothiophene-2-carboxamido)tetrahydro-2H-pyran-3-yl)-6-fluoro-N-methyl-2-(pyridin-2-yl)-1H-benzo[d]imidazole-5-carboxamide], the results for the IC50 in assay [1], in assay [2] and in assay [3] were below 100 nM, 100 to 500 nM and at least 1 µM, respectively.
On the same counts, the results for `CNC(=O)c1cc2nc(-c3cccc(F)c3)n(C3CCC[C@@H](NC(=O)c4ccc(Cl)s4)C3)c2cc1F` (some centres unmarked) [Compound 224] are below 100 nM, 100 to 500 nM and 0.1 to 0.5 µM.
The corresponding values for `O=C(N[C@@H]1CCC[C@H](n2c(-c3ncccc3F)nc3cnccc32)C1)c1ccc(Br)s1` [Compound 284] are below 100 nM, 100 to 500 nM and at least 1 µM.
The corresponding values for `CNC(=O)c1ccc2c(c1)nc(-c1ncccc1F)n2[C@H]1CCC[C@@H](NC(=O)c2ccc(C#N)s2)C1` [Compound 198] are below 100 nM, 100 to 500 nM and at least 1 µM.
With `CNC(=O)c1ccc2c(c1)nc(-c1cccs1)n2[C@H]1CCC[C@@H](NC(=O)c2ccc(Cl)s2)C1` [Compound 189], the half-maximal inhibitory concentration (IC50) (commonly the concentration that inhibits the measured activity by half) was below 100 nM in assay [1] and 0.1 to 0.5 µM in assay [4].
For `CNC(=O)c1cc2nc(-c3cccc(F)c3)n(C3CCC[C@@H](NC(=O)c4ccc(F)s4)C3)c2cc1F` (some centres unmarked) [Compound 225], the half-maximal inhibitory concentration (IC50) in assay [1] is below 100 nM; in assay [2], at least 1000 nM; in assay [3], at least 1 µM.
Regarding `CNC(=O)c1ccc2c(c1)nc(-c1sccc1C)n2[C@H]1CCC[C@@H](NC(=O)c2ccc(Br)s2)C1` [Compound 169], the IC50 in assay [1] is below 100 nM; in assay [2], at least 1000 nM; in assay [3], at least 1 µM.
Turning to `O=C(N[C@@H]1CCC[C@H](n2c(-c3ccccc3F)nc3cccnc32)C1)c1ccc(Br)s1` [Compound 285], the values for the IC50 in assay [1], in assay [2] and in assay [3] were below 100 nM, 500 to 1000 nM and 0.5 to 1 µM, respectively.
On to `CNC(=O)c1ccc2c(c1)nc(-c1ccccn1)n2[C@H]1C[C@@H](NC(=O)c2ccc(Br)s2)CC(F)(F)C1` [Compound 239], for which the half-inhibitory concentration (IC50) in assay [1] is 100 to 500 nM; in assay [2], at least 1000 nM; in assay [3], 0.1 to 0.5 µM.
Consider `CC(=O)c1ccc2c(c1)nc(-c1ccccn1)n2[C@H]1CCC[C@@H](NC(=O)c2ccc(Br)s2)C1` [Compound 196], for which the IC50 in assay [1] is below 100 nM; in assay [2] it was at least 1000 nM; in assay [3] it was at least 1 µM.
Regarding `CNC(=O)c1cc2nc(-c3ccccc3F)n([C@H]3CCC[C@@H](NC(=O)c4ccc(Cl)s4)C3)c2cc1F` [Compound 206], the half-inhibitory concentration (IC50) was below 100 nM in assay [1], below 100 nM in assay [2] and 0.1 to 0.5 µM in assay [3].
As for `CNC(=O)c1ccc2c(c1)nc(-c1ccccc1C(N)=O)n2[C@H]1CCC[C@@H](NC(=O)c2ccc(Br)s2)C1` [Compound 143], the IC50 was below 100 nM in assay [1], at least 1000 nM in assay [2] and at least 1 µM in assay [3].
On the same counts, the results for `CNC(=O)c1ccc2c(c1)nc(-c1ccccc1C(F)F)n2C1CCC[C@@H](NC(=O)c2ccc(Cl)s2)C1` (some centres unmarked) [Compound 222] are below 100 nM, 100 to 500 nM and 0.1 to 0.5 µM.
Take `CNC(=O)c1ccc2c(c1)nc(-c1ccccc1[N+](=O)[O-])n2C1CCCC(NC(=O)c2ccc(C#N)s2)C1` (centres unmarked) [Compound 200]: the values for the concentration for half-maximal inhibition (IC50) in assay [1], in assay [2] and in assay [3] were below 100 nM, 100 to 500 nM and at least 1 µM, respectively.
Consider `CNC(=O)c1ccc2c(c1)nc(-c1ccccc1OC(F)(F)F)n2[C@H]1CCC[C@@H](NC(=O)c2ccc(Br)s2)C1` [Compound 166], for which the results for the half-maximal inhibitory concentration (IC50) in assay [1], in assay [2] and in assay [3] were below 100 nM, 500 to 1000 nM and 0.1 to 0.5 µM, respectively.
`CNC(=O)c1cc2nc(-c3sccc3F)n([C@H]3CCC[C@@H](NC(=O)c4ccc(Cl)s4)C3)c2cc1F` [Compound 230]: the IC50 is below 100 nM in assay [1], 500 to 1000 nM in assay [2] and at least 1 µM in assay [3].
In the case of `CNC(=O)c1cc2nc(-c3ccccc3C)n([C@H]3CCC[C@@H](NC(=O)c4ccc(Cl)s4)C3)c2cc1F` [Compound 205], the values for the IC50 in assay [1], in assay [2] and in assay [3] were below 100 nM, 100 to 500 nM and at least 1 µM, respectively.
